Experimental findings from paper PMC13077286, “Potentiation of the antimycobacterial activity of bedaquiline, clofazimine, and doxycycline against Mycobacterium smegmatis by several natural product-based compounds is putatively via efflux inhibition” (Open Research Africa, 2026) are described below.

Molecules are shown by their SMILES. Counter-ions that a name gives are not always drawn. Like-named read-outs stand apart in the source and are kept apart here.

Data set [1] deals with Mycobacterium smegmatis (Msm) strain ATCC 607. The data set is described as follows: Two-dimensional checkerboard assay incorporating resazurin (REMA MIC) against Msm. Format: cell-based. The following applies: for MIC 99 fold reduction of anti-TB drug BDQ: BDQ in combination with the labelled EI; for MIC 99 fold reduction of anti-TB drug DOX: DOX in combination with the labelled EI; for FICI: synergy FICI ≤ 0.5; for MIC / MIC99: compound tested singly, read-out: MIC 99 singly; for MIC 99 fold reduction of anti-TB drug CFZ: CFZ in combination with the labelled EI. Background: The colour change of resazurin is a common sign of viable cells or microbes.

Data set [2] is described as follows: MTT cytotoxicity assay on Vero E6 cells. The class given is cell-based, African green monkey. The following applies: African green monkey. The method, then: (§1) To determine the cytotoxicity of the compounds, Vero E6 cells (derived from the African green monkey kidney cells) were used and the MTT assay was performed as described by [Mosmann (1983)]. The Vero E6 cells were sourced from the American Type Culture Collection (ATCC, Manassas, Virginia, USA). The cells were maintained in Eagle’s Minimum Essential Medium (EMEM) supplemented with 10% fetal bovine serum (FBS; […] Panasonic, Japan) until 80% confluency was achieved, after which they were sub-cultured for cytotoxicity evaluation. At 80% confluency, cells were washed with phosphate-buffered saline (PBS; […] Trypsin activity was neutralized by adding supplemented EMEM. Cells were stained with trypan blue (Loba Chemie, India) and counted using a hemocytometer, and the cell suspensions were adjusted with supplemented EMEM to a final density of 1 × 10 ^5 cells/mL. […] After 24 hrs, the culture medium was replaced with fresh treatment medium with dose dilutions. […] After 48 hrs incubation, the media was removed, and the cells were rinsed with PBS (Sigma-Aldrich, USA). Fresh EMEM supplemented with MTT dye (5 mg […]/mL in PBS; Solarbio, China) was added and incubated for 4 hrs. The MTT solution was then discarded, and formazan crystals were completely dissolved with 100 μL of 100% DMSO (Finar Chemicals, India). Absorbance readings were taken at 570 nm using a microplate reader (Thermo Fisher Scientific, USA). All experiments were performed with three technical replicates. Cell viability (%) was determined using the formula: Cell viability(%)=[Absorbance of treated cells/Absorbance of untreated cells]×100 […]
For orientation: Tetrazolium assays rely on reduction of a dye to a coloured formazan, in cell work by metabolically active cells.

A further data set deals with Vero E6 cells. The data set is described as follows: MTT cytotoxicity assay on Vero E6 cells. Format: cell-based, African green monkey. The method, then: as §1
Setting [3] is: Msm, labelled EI in combination with BDQ.
Setting [4] is: Msm, labelled EI in combination with CFZ.
Setting [5] is: Msm, labelled EI in combination with DOX.
Where [6] appears, read: Mycolicibacterium smegmatis, ATCC607, Msm.
[7] abbreviates: Vero E6 cells, 48 hrs exposure, MTT, read-out: CC 50.

What is called MIC is the lowest concentration found to suppress growth. As for `COc1ccc2cc3[n+](cc2c1OC)CCc1cc2c(cc1-3)OCO2` [BER, Berberine chloride], the “MIC 99 fold reduction of anti-TB drug BDQ” value in data set [1] (Msm) is listed as 10 fold. The “MIC 99 fold reduction of anti-TB drug DOX” value in data set [1] (Msm) was 16 fold. The “FIC (EI)” value in data set [1] (Msm, in combination with BDQ) was found to be 0.125. Also, the “MIC 99 combination (EI)” value in data set [1] (Msm, in combination with BDQ) was 27.62 µM; in data set [1] (Msm, in combination with CFZ), 53.99 µM; in data set [1] (Msm, in combination with DOX), 53.99 µM. For the same molecule, the FICI in data set [1] (setting [3]) was found to be 0.23; in data set [1] (setting [4]), 2; in data set [1] (setting [5]) it was 0.31. Moreover, the MIC in data set [1] (setting [6]) was found to be 221 µM. In addition, in data set [1] (setting [6]), the MIC99 was 110 µM. Moreover, the CC50 at 48 h in data set [2] was determined as 362 µM.
Regarding `COC(=O)[C@H]1[C@H]2C[C@@H]3c4[nH]c5cc(OC)ccc5c4CCN3C[C@H]2C[C@@H](OC(=O)c2cc(OC)c(OC)c(OC)c2)[C@@H]1OC` [RES, reserpine], in data set [1] (Msm), the “MIC 99 fold reduction of anti-TB drug BDQ” value was 2 fold, the “MIC 99 fold reduction of anti-TB drug CFZ” value was determined as 4 fold and the “MIC 99 fold reduction of anti-TB drug DOX” value stood at 32 fold. Further, in data set [1] (Msm, in combination with BDQ), the “MIC 99 combination (EI)” value was >2239.3 µM. Also, the “MIC 99 combination (EI)” value in data set [1] (Msm, in combination with CFZ) is >2239.3 µM. Besides, in data set [1] (setting [6]), the MIC was > 2240 µM and the MIC99 was > 2240 µM. For the same molecule, the “Cytotoxicity (in words)” value in the data set on Vero E6 cells is given as “strong cytotoxicity at low micromolar concentrations”.
Take `O=C(/C=C/C=C/c1ccc2c(c1)OCO2)N1CCCCC1` [PIP, piperine]: in data set [1] (Msm), the “MIC 99 fold reduction of anti-TB drug CFZ” value is listed as 8 fold. Also, the “MIC 99 fold reduction of anti-TB drug DOX” value in data set [1] (Msm) is 16 fold. The “FIC (EI)” value in data set [1] (Msm, in combination with BDQ) came out at 1; in data set [1] (Msm, in combination with CFZ), 0.25; in data set [1] (Msm, in combination with DOX), 0.25. Moreover, the “MIC 99 combination (EI)” value in data set [1] (Msm, in combination with BDQ) is 119.99 µM; in data set [1] (Msm, in combination with CFZ), 29.99 µM; in data set [1] (Msm, in combination with DOX), 29.99 µM. Further, the FICI in data set [1] (setting [3]) came out at 2; in data set [1] (setting [4]), 0.37. Moreover, the MIC99 in data set [1] (setting [6]) was 120 µM. In addition, the CC50 at 48 h in data set [2] (setting [7]) was determined as 92.5 µM.
As for `COc1nc2ccc(Br)cc2cc1[C@@H](c1ccccc1)[C@@](O)(CCN(C)C)c1cccc2ccccc12` [BDQ, bedaquiline fumarate], the MIC in data set [1] (Msm) was 0.39 µM. For the same molecule, the “FIC (anti-TB drug)” value in data set [1] (Msm, in combination with BER) is 0.102; in data set [1] (Msm, in combination with LYO-3) it was 0.05; in data set [1] (Msm, in combination with PIP), 1; in data set [1] (Msm, in combination with RES) it was 0.5. For the same molecule, the “MIC 99 combination (anti-TB drug)” value in data set [1] (Msm, in combination with BER) was 0.04 µM; in data set [1] (Msm, in combination with LYO), 0.09 µM; in data set [1] (Msm, in combination with LYO-3), 0.04 µM; in data set [1] (Msm, in combination with PIP), 0.78 µM; in data set [1] (Msm, in combination with RES), 0.39 µM. Further, in data set [1] (setting [6]), the MIC99 came out at 0.78 µM.
With `C[C@H]1c2cccc(O)c2C(=O)C2=C(O)[C@]3(O)C(=O)C(C(N)=O)=C(O)[C@@H](N(C)C)[C@@H]3[C@@H](O)[C@@H]21` [DOX, doxycycline hyclate], the “FIC (anti-TB drug)” value was determined as 0.063 in data set [1] (Msm, in combination with BER); 0.063 in data set [1] (Msm, in combination with LYO); 0.063 in data set [1] (Msm, in combination with LYO-3); 0.063 in data set [1] (Msm, in combination with PIP); 0.031 in data set [1] (Msm, in combination with RES). In addition, the “MIC 99 combination (anti-TB drug)” value in data set [1] (Msm, in combination with BER) was 2.25 µM; in data set [1] (Msm, in combination with LYO), 2.25 µM; in data set [1] (Msm, in combination with LYO-3), 2.25 µM; in data set [1] (Msm, in combination with PIP), 2.25 µM; in data set [1] (Msm, in combination with RES), 1.12 µM. In addition, the MIC99 in data set [1] (setting [6]) is 36 µM.
In general, viability refers to the share of living cells, or the viability signal relative to a control. Regarding `COc1cc([C@H]2c3c(cc(OC)c(O)c3OC)C[C@@H](CO)[C@@H]2CO[C@@H]2O[C@H](CO)[C@@H](O)[C@H](O)[C@H]2O)cc(OC)c1O` [LYO-3, (+)-lyoniresinol-3-Alpha-O-Beta-D-glucopyranoside], the “MIC 99 fold reduction of anti-TB drug BDQ” value in data set [1] (Msm) turned out to be 20 fold. Besides, the “MIC 99 fold reduction of anti-TB drug DOX” value in data set [1] (Msm) was determined as 16 fold. Moreover, the “FIC (EI)” value was found to be 0.25 in data set [1] (Msm, in combination with BDQ); 1 in data set [1] (Msm, in combination with CFZ); 0.25 in data set [1] (Msm, in combination with DOX). The “MIC 99 combination (EI)” value turned out to be 24.99 µM in data set [1] (Msm, in combination with BDQ); 99.99 µM in data set [1] (Msm, in combination with CFZ); 25 µM in data set [1] (Msm, in combination with DOX). For the same molecule, the FICI in data set [1] (setting [3]) is reported as 0.3; in data set [1] (setting [4]), 2; in data set [1] (setting [5]), 0.21. Further, in data set [1] (setting [6]), the MIC99 stood at 100 µM. In addition, the CC50 at 48 h in data set [2] (setting [7]) came to 604 µM. For the same molecule, the viability at 48 h in data set [2] (Vero E6 cells, even at higher concentrations, read-out: Cell viability) is > 50%.
`CC(C)/N=c1\cc2n(-c3ccc(Cl)cc3)c3ccccc3nc-2cc1Nc1ccc(Cl)cc1` [CFZ, clofazimine]: the “FIC (anti-TB drug)” value in data set [1] (Msm, in combination with BER) was 1; in data set [1] (Msm, in combination with LYO) it was 1; in data set [1] (Msm, in combination with LYO-3), 1; in data set [1] (Msm, in combination with PIP), 0.12; in data set [1] (Msm, in combination with RES), 0.25. The “MIC 99 combination (anti-TB drug)” value in data set [1] (Msm, in combination with BER) was 0.08 µM; in data set [1] (Msm, in combination with LYO), 0.08 µM; in data set [1] (Msm, in combination with LYO-3) it was 0.08 µM; in data set [1] (Msm, in combination with PIP), 0.01 µM; in data set [1] (Msm, in combination with RES), 0.02 µM. Moreover, the MIC99 in data set [1] (setting [6]) is 0.08 µM.
With `COc1cc(C2c3c(cc(OC)c(O)c3OC)CC(CO)C2CO)cc(OC)c1O` (centres unmarked) [LYO, lyoniresinol], in data set [1] (Msm), the “MIC 99 fold reduction of anti-TB drug BDQ” value came out at 8 fold. Moreover, in data set [1] (Msm), the “MIC 99 fold reduction of anti-TB drug DOX” value was determined as 16 fold. Moreover, the “FIC (EI)” value is on record as 0.125 in data set [1] (Msm, in combination with BDQ); 1 in data set [1] (Msm, in combination with CFZ); 0.125 in data set [1] (Msm, in combination with DOX). Besides, the “MIC 99 combination (EI)” value in data set [1] (Msm, in combination with BDQ) turned out to be 25 µM; in data set [1] (Msm, in combination with CFZ) it was 200 µM; in data set [1] (Msm, in combination with DOX), 25 µM. In addition, the FICI in data set [1] (setting [3]) was 0.18; in data set [1] (setting [4]), 2; in data set [1] (setting [5]), 0.19. Further, the MIC99 in data set [1] (setting [6]) was determined as 200 µM. The CC50 at 48 h in data set [2] (setting [7]) was 318 µM.
